Patent publication US20240277631A1, “SMALL MOLECULE DRUG (ELP-004) TO PREVENT BONE LESIONS CAUSED BY MULTIPLE MYELOMA” (West Virginia University Board of Governors on behalf of …, priority 2023, published 2024)
Read-outs that look alike come from different tables or passages of the source.

Key:
Murine BMSMCs = assay: RANKL-induced osteoclastogenesis (TRAP, multinucleation, marker mRNA); format: cell-based; details: RANKL (100 ng/ml)
Description: Murine BMSMCs were grown for up to 21 days in media supplemented with 50 ng/ml of m-CSF and 100 ng/mL RANKL. Each experiment was repeated a minimum of three times. Cells were fixed and stained for Tartrate Resistant Acid Phosphatase (TRAP) activity at days 1, 7, 14, and 21. The number of trap positive osteoclast-like cells (out of 100 cells) were counted for each time point, along with TRAP intensity, as shown in schematic A. In schematic B, the number of nuclei for each cell counted and the average number of nuclei per cell for 100 cells is shown at each time point.

Jurkat cells = format: cell-based; design: dose or concentration left out as unconfirmed; details: human
Description: wherein each X is chlorine, Y is a methyl group, and R is an ethyl group. N-MeDCPA is synthesized as described in U.S. Pat. No. 10,682,320, which is incorporated by reference herein. ELP-004 (N-MeDCPA) precludes metabolizing to two toxic metabolites, N—OH-dichloroaniline and 6-OH-dichloroaniline. In vitro assays for toxicity caused by ELP-004 using Jurkat cells show 50% toxicity at […] and <2% toxicity at […].
ELP-004 (i.e. N-MeDCPA) was specifically developed to preclude metabolizing to two toxic metabolites, N—OH-dichloroaniline and 6-OH-dichloroaniline. In vitro assays for toxicity caused by ELP-004 using Jurkat cells show 50% toxicity at […] and <2% toxicity at […].

rats = assay: 1x escalating oral toxicity in rats (IITRI); format: in vivo, rat
dopamine transporter = dopamine transporter (Homo sapiens, UniProt Q01959); assay: dopamine transport
Excerpt: ELP-004 has been evaluated for its ability to cross the blood brain barrier. […] Other medications, such as but not limited to bupropion, are known to cause problems due to dopamine transporter binding.

CYP1A2 = molecular target: T1, CYP1A2 (Homo sapiens, UniProt P05177); assay: stability with recombinant CYP1A2; format: in vitro ADME; details: recombinant CYP1A2, intrinsic clearance, read-out: Recombinant CYP CLINT
T1 sequence (P05177 1-516): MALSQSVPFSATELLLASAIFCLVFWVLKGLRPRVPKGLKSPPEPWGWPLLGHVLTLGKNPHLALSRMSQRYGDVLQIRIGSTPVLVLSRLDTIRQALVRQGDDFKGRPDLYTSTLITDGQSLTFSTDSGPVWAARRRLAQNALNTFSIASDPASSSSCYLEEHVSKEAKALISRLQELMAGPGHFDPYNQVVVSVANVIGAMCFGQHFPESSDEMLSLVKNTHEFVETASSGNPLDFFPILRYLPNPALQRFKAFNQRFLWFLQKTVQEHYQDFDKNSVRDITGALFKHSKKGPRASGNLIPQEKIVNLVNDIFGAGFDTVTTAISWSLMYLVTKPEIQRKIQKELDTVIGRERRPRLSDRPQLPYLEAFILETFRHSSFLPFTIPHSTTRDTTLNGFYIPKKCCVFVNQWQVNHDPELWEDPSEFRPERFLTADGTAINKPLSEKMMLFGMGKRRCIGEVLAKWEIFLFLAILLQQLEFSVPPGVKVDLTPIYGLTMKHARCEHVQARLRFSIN
Description: (§1) Depicted in table 2 is cytochrome P450 phenotyping and inhibition by ELP-004. The stability of ELP-004 was tested in the presence of recombinant enzymes CYP1A2, CYP2B6, CYP2C8, CYP2C9, CYP2C19, CYP2D6, and CYP3A4. ELP-004 (1 μM) was incubated with recombinant enzymes and NADPH. The amount of ELP-004 remaining at each timepoint was analyzed by LC-MS/MS. Incubations in control recombinant enzymes were also performed to assess non-enzymatic mediated stability. The intrinsic clearance of ELP-004 was determined. […] A decrease in the formation of the metabolite compared to vehicle control is used to calculate an IC50 value. Metabolite peak area ratio response as a percentage of vehicle control is plotted against the test compound concentration.

CYP2C8 = molecular target: T2, CYP2C8 (Homo sapiens, UniProt P10632); assay: stability with recombinant CYP2C8; format: in vitro ADME; details: recombinant CYP2C8, intrinsic clearance, read-out: Recombinant CYP CLINT
T2 sequence (P10632 1-490): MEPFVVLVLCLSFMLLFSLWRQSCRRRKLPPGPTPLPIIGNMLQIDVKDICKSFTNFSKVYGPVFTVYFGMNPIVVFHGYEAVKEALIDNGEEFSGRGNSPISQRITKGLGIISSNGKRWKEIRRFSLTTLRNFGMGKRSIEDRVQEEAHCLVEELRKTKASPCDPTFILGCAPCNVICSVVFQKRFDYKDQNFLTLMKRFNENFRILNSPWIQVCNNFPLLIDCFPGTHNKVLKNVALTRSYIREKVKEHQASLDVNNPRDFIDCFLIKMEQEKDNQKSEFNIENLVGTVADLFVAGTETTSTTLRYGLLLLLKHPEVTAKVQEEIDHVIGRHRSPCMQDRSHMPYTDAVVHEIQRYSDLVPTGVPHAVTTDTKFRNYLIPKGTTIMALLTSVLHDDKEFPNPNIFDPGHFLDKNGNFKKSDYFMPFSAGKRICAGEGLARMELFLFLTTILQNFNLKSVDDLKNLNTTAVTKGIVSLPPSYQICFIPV
Description: as §1

CYP2C9 = CYP2C9 (Homo sapiens, UniProt P11712); assay: stability with recombinant CYP2C9; format: in vitro ADME
Description: as §1

Sequence of CYP2C9 (P11712 whole entry): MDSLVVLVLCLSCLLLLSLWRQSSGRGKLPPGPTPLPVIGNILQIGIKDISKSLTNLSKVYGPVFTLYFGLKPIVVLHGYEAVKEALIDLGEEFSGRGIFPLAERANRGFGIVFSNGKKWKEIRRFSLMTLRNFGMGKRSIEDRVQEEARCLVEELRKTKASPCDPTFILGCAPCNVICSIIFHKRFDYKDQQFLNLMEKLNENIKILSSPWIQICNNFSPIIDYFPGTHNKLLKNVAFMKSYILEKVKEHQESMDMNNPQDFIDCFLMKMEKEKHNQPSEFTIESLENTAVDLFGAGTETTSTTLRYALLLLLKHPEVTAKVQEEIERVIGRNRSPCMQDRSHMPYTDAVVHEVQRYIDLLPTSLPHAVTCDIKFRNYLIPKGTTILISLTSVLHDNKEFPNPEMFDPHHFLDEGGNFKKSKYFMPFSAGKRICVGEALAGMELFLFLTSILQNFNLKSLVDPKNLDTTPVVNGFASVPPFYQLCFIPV
Sequence of dopamine transporter (Q01959 whole entry): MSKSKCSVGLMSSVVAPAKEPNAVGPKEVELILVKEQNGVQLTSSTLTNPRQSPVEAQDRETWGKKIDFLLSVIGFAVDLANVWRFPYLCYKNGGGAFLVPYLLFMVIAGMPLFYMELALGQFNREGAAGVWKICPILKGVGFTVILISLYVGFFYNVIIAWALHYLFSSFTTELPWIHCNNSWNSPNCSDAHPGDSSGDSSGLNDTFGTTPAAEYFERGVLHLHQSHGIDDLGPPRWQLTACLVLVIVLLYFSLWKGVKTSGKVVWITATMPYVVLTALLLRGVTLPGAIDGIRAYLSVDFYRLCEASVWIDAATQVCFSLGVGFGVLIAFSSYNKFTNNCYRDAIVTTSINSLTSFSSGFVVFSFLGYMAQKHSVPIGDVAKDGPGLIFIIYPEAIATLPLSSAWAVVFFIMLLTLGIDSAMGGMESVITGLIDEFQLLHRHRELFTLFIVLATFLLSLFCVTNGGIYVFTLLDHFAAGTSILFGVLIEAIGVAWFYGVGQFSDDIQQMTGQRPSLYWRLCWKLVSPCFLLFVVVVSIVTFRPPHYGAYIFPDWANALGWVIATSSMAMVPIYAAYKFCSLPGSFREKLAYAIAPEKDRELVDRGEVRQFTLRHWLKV

For CCC(=O)N(C)c1ccc(Cl)c(Cl)c1 [ELP-004, N-(3,4-dichlorophenyl)-N-methylpropanamide], the TRAP activity (Murine BMSMCs) was “no significant effect”, the multinucleation (Murine BMSMCs) was “no significant effect” and the “expression of osteoclast markers” value (Murine BMSMCs; RT-PCR days 7 and 14) was “no significant effect”. The toxicity (Jurkat cells; 200) was under 2%, the toxicity (Jurkat cells; 800) was 50% and the “oral LD50” value (rats) was over 2.5 g/kg body weight. For the same compound, the “problems with dopamine transport” value (dopamine transporter) was “does not cause problems with dopamine transport”, the microsomal CLint at 1 μM (CYP1A2) was 2.85 µL/min/mg and the microsomal CLint at 1 μM (CYP2C8) was 0.219 µL/min/mg. The microsomal CLint at 1 μM (CYP2C9; human, recombinant CYP2C9, intrinsic clearance, read-out: Recombinant CYP CLINT) was under 0.154 µL/min/mg, the “metabolism by recombinant enzyme” value (CYP2C9; recombinant CYP2C9) was “not metabolized” and the “ELP-004 t1/2” value (CYP2C9; recombinant CYP2C9, 1 μM, NADPH) was over 3 h.
